Source: ChEMBL document CHEMBL1240298, “Features of selective kinase inhibitors” (Chem Biol, 2005)
pKi: −log10 of the molar value.

Key:
[1] = biological target: T1, Tyrosine-protein kinase ITK/TSK (Homo sapiens, UniProt Q08881)
T1 sequence (Q08881 whole entry): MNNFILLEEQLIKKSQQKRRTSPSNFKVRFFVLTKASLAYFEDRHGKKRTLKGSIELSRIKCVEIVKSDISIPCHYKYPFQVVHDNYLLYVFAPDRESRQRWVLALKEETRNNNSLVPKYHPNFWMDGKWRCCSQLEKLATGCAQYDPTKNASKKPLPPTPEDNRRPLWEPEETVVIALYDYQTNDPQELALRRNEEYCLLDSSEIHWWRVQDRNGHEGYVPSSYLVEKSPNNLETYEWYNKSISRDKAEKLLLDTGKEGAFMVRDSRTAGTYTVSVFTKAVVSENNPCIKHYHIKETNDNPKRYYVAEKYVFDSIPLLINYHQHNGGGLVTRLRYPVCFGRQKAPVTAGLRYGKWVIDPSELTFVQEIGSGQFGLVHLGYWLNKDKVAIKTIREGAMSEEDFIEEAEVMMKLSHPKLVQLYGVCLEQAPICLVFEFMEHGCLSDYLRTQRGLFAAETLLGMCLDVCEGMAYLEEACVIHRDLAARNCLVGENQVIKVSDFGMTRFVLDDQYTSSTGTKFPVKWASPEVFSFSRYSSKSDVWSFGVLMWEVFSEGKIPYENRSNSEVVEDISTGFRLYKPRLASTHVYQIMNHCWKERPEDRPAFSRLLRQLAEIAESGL

[2] = biological target: Tyrosine-protein kinase Lck (Homo sapiens, UniProt P06239)
Tyrosine-protein kinase Lck, sequence (P06239 whole entry): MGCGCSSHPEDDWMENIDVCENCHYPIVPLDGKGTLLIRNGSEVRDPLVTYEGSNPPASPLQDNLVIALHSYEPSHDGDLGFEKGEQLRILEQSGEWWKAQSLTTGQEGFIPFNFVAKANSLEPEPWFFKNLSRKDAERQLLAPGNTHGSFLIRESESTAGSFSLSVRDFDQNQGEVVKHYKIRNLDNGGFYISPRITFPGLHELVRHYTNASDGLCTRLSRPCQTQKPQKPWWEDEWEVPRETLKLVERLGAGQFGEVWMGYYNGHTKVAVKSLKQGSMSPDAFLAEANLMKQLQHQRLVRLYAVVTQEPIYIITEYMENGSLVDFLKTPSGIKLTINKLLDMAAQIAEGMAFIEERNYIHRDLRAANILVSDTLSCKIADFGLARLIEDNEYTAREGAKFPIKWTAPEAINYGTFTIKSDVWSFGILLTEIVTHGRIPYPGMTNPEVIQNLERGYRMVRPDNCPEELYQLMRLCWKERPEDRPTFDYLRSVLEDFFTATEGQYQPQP

SMILES | pKi [1] | pKi [2]
COc1cc(C)c(Sc2cnc(NC(=O)c3ccc(CNC(C)C(C)(C)C)cc3)s2)cc1C(=O)N1CCN(C(C)=O)CC1 (configuration not stated) | 7.80 | –
Cc1cccc(Cl)c1NC(=O)c1ccc2nc(NC(=O)NC(C)(C)C)sc2c1 | – | 8.40
